We go through 8 molecules from PMC2667487, “Cellular localization of kinin B1 receptor in the spinal cord of streptozotocin-diabetic rats with a fluorescent [N^α-Bodipy]-des-Arg^9-bradykinin” (Journal of Neuroinflammation, 2009).

Values joined by “and” are separate entries in the source; they are usually repeats but may differ in a detail not shown here. Equal entries are not always repeated. “Also recorded” adds a separate entry of the source. Square brackets hold non-standard residues; d marks the D form. Peptide text beside a SMILES is read from it. d2Nal = N[C@H](Cc1ccc2ccccc2c1)C(=O)O

Assay [1] relates to rat model of insulin-resistance. The note with it: cited from earlier work. The text has this:
(§1) Importantly, the development of tactile and cold allodynia in a rat model of insulin-resistance was blocked by the B1R antagonist SSR240612 [28] and by two antioxidants (N-acetyl-L-cysteine and alpha-lipoic acid) ...

Assay [2] deals with B1R. Particulars: cited from earlier work.
Excerpt: as §1

Assay [3] relates to B1R mRNA in thoracic spinal cord. Briefly: B1R mRNA expression, SYBR green-based quantitative RT-PCR. Set-up: species or system rat. The note with it: STZ 65 mg/kg i.p., 4 days, 18S reference, means of 3 to 6 rats. Here is the method: (§2) Rats were used 5 days after their arrival and injected under low light with freshly prepared STZ (65 mg/kg; i.p.; Sigma-Aldrich, Oakville, ON, Canada). Age-matched controls were injected with vehicle (sterile saline 0.9%, pH. 7.0). Glucose concentrations were measured, with a commercial blood glucose-monitoring kit (Accusoft; Roche Diagnostics, Laval, Que., Canada), in blood samples obtained from the tail vein, in non-fasting animals, before STZ injection, and 4 days after treatment. Only STZ-treated rats whose blood glucose concentration was higher than 20 mM were considered as diabetic.
Four days after injection of STZ, rats were anaesthetized with CO2 inhalation and then decapitated. […] First-strand cDNA synthesized from 400 ng total RNA with random hexamer primers was used as template for each reaction with the QuantiTect Rev Transcription Kit (QIAGEN). SYBR Green-based real-time quantitative PCR using Mx3000p device for signal detection (Stratagene, La Jolla, CA, USA) was performed as described. […] For standardization and quantification, rat 18S was amplified simultaneously. […]
PCR conditions were as follows: 95°C for 15 min, followed by 46 cycles at 94°C for 15 s, 60°C for 30 s and 72°C for 30 s. […] The relative quantification of gene expression was analyzed by the 2^-ΔΔCt method.

Assay [4] concerns B1R binding sites in thoracic spinal cord. Description: density of specific B1R binding sites, quantitative autoradiography. Particulars: STZ 65 mg/kg i.p., 4 days, 7 to 8 rats. Set-up: species or system rat. The protocol:
as §2
The radioligands for kinin B1R, HPP-desArg^10-Hoe140 (3-(4 hydroxyphenyl) propionyl-desArg^9-D-Arg^0 [Hyp^3, Thi^5, D-Tic^7, Oic^8]Bradykinin) and kinin B2R, HPP-Hoe140 (3-(4 hydroxyphenyl) propionyl-D-Arg^0 [Hyp^3, Thi^5, D-Tic^7, Oic^8]Bradykinin) were synthesized and kindly provided by Dr Witold Neugebauer (Dept Pharmacology, University of Sherbrooke, Sherbrooke, Que., Canada). They were iodinated by the chloramine T method. […] Autoradiograms were quantified by densitometry using an MCID™ image analysis system (Imaging Research, St. Catharines, ON, Canada). […] Specific binding was determined by subtracting values of nonspecific binding from that of total binding.

For assay [5], the target named is T1, kinin B1R (Rattus norvegicus, UniProt P97583).
T1 construct: from tissue; host or cells: rat spinal cord sections (autoradiography)
T1 sequence (P97583 1-337): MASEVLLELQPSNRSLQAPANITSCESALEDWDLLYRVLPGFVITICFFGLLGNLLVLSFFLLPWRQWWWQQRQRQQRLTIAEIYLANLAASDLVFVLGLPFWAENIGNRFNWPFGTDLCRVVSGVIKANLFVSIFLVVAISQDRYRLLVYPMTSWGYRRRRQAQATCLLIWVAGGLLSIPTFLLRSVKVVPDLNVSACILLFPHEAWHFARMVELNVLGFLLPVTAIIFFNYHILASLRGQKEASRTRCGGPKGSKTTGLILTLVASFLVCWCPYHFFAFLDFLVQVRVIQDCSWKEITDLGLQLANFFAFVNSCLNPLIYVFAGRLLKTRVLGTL
Description: competition curves by quantitative autoradiography, displacement of [^125I]-HPP-desArg^10-Hoe 140 (B1R). Particulars: 200 pM [^125I]-HPP-desArg^10-Hoe 140, competitor 10^-10 to 10^-6 M, thoracic spinal cord sections of STZ-treated rats, 90 min, room temperature, 25 mM PIPES-NH4OH pH 7.4; means ± SEM, 4 sections per rat from 7 rats; read-out: IC50, inhibition of total B1R binding sites. Here is the method:
(§3) They were iodinated by the chloramine T method. […] At the end of the incubation period, slides were transferred sequentially through four rinses of 4 min each in 25 mM PIPES (pH 7.4; 4°C) dipped for 15s in distilled water (4°C) to remove the excess of salts, and then air-dried. Kodak Scientific Imaging Films BIOMAXTM MR® (Amersham Pharmacia Biotech Canada) were juxtaposed onto the slides in the presence of [^125I]-microscales and exposed at room temperature for 7 days. The films were developed (GBX developer) and fixed (GBX fixer). Autoradiograms were quantified by densitometry using an MCIDTM image analysis system (Imaging Research, St. Catharines, ON, Canada). A standard curve from [^125I]-microscales was used to convert density levels into fentomoles per milligram of protein [48]. Specific binding was determined by subtracting values of nonspecific binding from that of total binding. […] Each concentration of each competitor was tested on 4 sections per rat from 7 different rats. Those sections were exposed to the film, and total binding was calculated as described above. […] All data were expressed as means ± S.E.M. obtained from n rats. Statistical significance was determined with Student's t-test for unpaired samples or a one-way analysis of variance (ANOVA) followed by post-hoc Dunnett test for multiple comparisons.

Assay [6] deals with T2, kinin B2R (Rattus norvegicus, UniProt P25023).
T2 construct: from tissue; host or cells: rat tissue sections (spinal cord, autoradiography)
T2 sequence (P25023 1-396): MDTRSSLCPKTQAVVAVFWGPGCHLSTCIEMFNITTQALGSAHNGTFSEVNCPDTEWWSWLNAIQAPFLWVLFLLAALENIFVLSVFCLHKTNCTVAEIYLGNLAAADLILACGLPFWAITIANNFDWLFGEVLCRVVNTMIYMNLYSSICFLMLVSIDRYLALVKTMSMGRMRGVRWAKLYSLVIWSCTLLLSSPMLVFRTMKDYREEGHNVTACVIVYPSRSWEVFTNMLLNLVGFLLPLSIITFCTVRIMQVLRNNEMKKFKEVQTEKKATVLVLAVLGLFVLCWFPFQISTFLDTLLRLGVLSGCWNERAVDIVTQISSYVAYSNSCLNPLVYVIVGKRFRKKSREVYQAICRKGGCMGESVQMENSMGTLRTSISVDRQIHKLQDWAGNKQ
Description: competition curves by quantitative autoradiography, displacement of [^125I]-HPP-Hoe 140 (B2R). The note with it: 200 pM [^125I]-HPP-Hoe 140, competitor 10^-10 to 10^-6 M, thoracic spinal cord sections of STZ-treated rats, 90 min, room temperature, 25 mM PIPES-NH4OH pH 7.4; means ± SEM, 4 sections per rat from 7 rats; read-out: IC50, displacement of B2R binding sites. The protocol:
as §3

Assay [7] concerns B1R in thoracic spinal cord. Description: BdABK fluorescent labeling of B1R and its displacement, confocal microscopy. Format: binding, rat. Particulars: STZ-treated thoracic spinal cord, BdABK 50 μM co-incubated with 10^-5 M antagonist. Here is the method:
On the day of experiments, sections were thawed at room temperature for 10 min to enhance sections adhesion. They were pre-incubated for 10 min in 25 mM PIPES-NH4OH buffer (pH 7.4) to allow degradation of endogenous kinins which could occupy receptors. Sections were exposed for 90 min to 50 μM BdABK. Thereafter, slides were washed twice (1 min) in PIPES and fixed with 4% para-formaldehyde. Slides were washed three times (5 min) and then exposed to 1 M of glycine for 90 min to eliminate autofluorescence from aldehyde-fixed tissue. […] Each concentration of each competitor was tested on 4 sections per rat from 7 different rats. Those sections were exposed to the film, and total binding was calculated as described above.

For `CC(=O)N[C@@H](CS)C(=O)O` [N-acetyl-L-cysteine], the “development of tactile and cold allodynia, antioxidants” value in assay [1] is “blocked”. Further, the “induction of B1R, antioxidants” value in assay [2] is on record as “prevent the induction of B1R”.

For `CN(N=O)C(=O)N[C@H]1C(O)O[C@H](CO)[C@@H](O)[C@@H]1O` (mixture of isomers) [STZ, streptozotocin], the “B1R mRNA expression increase (fold change vs control)” value in assay [3] is 18 fold and 18.1 fold. The “B1R binding sites, fold vs control” value in assay [4] amounted to 2.7 fold.

As for `O=C(O)CCCCC1CCSS1` (stereo not drawn) [alpha-lipoic acid], in assay [1], the “development of tactile and cold allodynia, antioxidants” value was “blocked”. Moreover, the “induction of B1R, antioxidants” value in assay [2] was “prevent the induction of B1R”.

With `N=C(N)NCCC[C@H](N)C(=O)N1CCC[C@H]1C(=O)N1CCC[C@H]1C(=O)NCC(=O)N[C@@H](Cc1ccccc1)C(=O)N[C@@H](CO)C(=O)N1CCC[C@H]1C(=O)N[C@@H](Cc1ccccc1)C(=O)O` [des-Arg^9-BK], the IC50 in assay [5] was found to be 19 nM.

As for `NC(N)=NCCC[C@@H](N)C(=O)N[C@@H](CCCN=C(N)N)C(=O)N1CCC[C@H]1C(=O)N1C[C@H](O)C[C@H]1C(=O)NCC(=O)N[C@@H](Cc1cccs1)C(=O)N[C@@H](CO)C(=O)N1Cc2ccccc2C[C@@H]1C(=O)N1[C@H](C(=O)N[C@@H](CCCN=C(N)N)C(=O)O)C[C@@H]2CCCC[C@@H]21` [Hoe 140], the IC50 in assay [6] turned out to be 1.33 ± 0.1 nM.

With `CC1=CC(C)=[N+]2C1=Cc1ccc(CCC(=O)N[C@@H](CCCNC(=N)N)C(=O)N3CCC[C@H]3C(=O)N3CCC[C@H]3C(=O)NCC(=O)N[C@@H](Cc3ccccc3)C(=O)N[C@@H](CO)C(=O)N3CCC[C@H]3C(=O)N[C@@H](Cc3ccccc3)C(=O)O)n1[B-]2(F)F` [BdABK, [N^α-Bodipy]-des-Arg^9-BK], the IC50 in assay [5] came to 5.3 nM.

For `CC[C@H](C)[C@H](NC(=O)[C@@H](Cc1ccc2ccccc2c1)NC(=O)[C@H](CO)NC(=O)[C@H](Cc1ccccc1)NC(=O)CNC(=O)[C@@H]1CCCN1C(=O)[C@@H]1CCCN1C(=O)[C@H](CCCN=C(N)N)NC(=O)[C@H](CCCCN)NC(C)=O)C(=O)O` [R-715, AcLys [D-βNal^7, Ile^8]des-Arg^9-BK] (Ac-KRPPGFS[d2Nal]I-OH), the IC50 in assay [5] is 4.3 nM.

`CCN(C(=O)[C@@H](Cc1ccc(CN2[C@H](C)CCC[C@@H]2C)cc1)NC(=O)C[C@@H](NS(=O)(=O)c1ccc2cc(OC)ccc2c1)c1ccc2c(c1)OCO2)C(C)C.Cl` [SSR240612]: the “displacement of BdABK labeling by B1R antagonist” value in assay [7] is reported as “absence of BdABK labeling; also recorded: B1R labeling was absent; also recorded: elimination of B1R labeling”. In assay [1], the “development of tactile and cold allodynia” value is on record as “blocked”.
